Data published in patent US20260297081A1, “COMPOUNDS AND METHODS OF TREATING CANCERS” (Cullgen Inc., priority 2023, published 2026).

Legend:
Type in all cases: cell-based
MCF7 cells = assay: Anti-proliferation (viability) of MCF7 cells (Table 7, FIG. 2B); settings: Homo sapiens, MCF7, MCF7 cells, 3-6 days, 10-point serial dilution; read-out: GI IC50 in MCF-7
CDK4 [1] = target: T1, CDK4 (Homo sapiens, UniProt P11802+Q16531); assay: HiBiT detection of HiBiT-tagged CDK4 protein level in MCF7 cells, 16 hours (Table 8); parameters: expressed in transfected cells; host or cells: MCF7; settings: MCF7 cells stably expressing HiBiT tagged target proteins; for activity at 0.01 µM: 10 nM, read-out: % CDK4 Relative Level (10 nM); for activity at 0.1 µM: 100 nM, read-out: % CDK4 Relative Level (100 nM)
Procedure: HiBiT detection system quantitatively measures total amounts of HiBiT-tagged proteins using a luminescent based method. MCF7 cells stably expressing HiBiT tagged target proteins were treated with heterobifunctional compounds at indicated concentrations for 16 hours, then lysed with Nano-Glo HiBiT Lytic detection reagents.
Target sequence in this assay (P11802 whole entry): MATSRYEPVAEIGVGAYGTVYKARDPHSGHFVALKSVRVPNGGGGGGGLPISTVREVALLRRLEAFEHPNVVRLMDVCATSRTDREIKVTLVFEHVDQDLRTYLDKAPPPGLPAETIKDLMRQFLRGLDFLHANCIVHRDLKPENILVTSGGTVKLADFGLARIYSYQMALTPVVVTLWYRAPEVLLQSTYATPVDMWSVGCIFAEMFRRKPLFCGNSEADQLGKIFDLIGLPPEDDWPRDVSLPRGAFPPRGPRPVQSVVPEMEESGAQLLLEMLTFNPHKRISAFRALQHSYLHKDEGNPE
Target sequence in this assay (P24385 whole entry partner): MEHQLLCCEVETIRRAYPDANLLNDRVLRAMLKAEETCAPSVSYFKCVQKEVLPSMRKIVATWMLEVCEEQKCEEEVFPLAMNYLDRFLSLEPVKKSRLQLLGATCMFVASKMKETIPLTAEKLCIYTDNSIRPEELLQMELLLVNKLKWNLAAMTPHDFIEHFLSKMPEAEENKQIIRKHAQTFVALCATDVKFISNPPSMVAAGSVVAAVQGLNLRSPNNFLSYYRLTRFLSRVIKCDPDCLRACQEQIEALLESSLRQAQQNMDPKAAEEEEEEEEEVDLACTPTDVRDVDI
Target sequence in this assay (Q16531 2-1140 limits assumed): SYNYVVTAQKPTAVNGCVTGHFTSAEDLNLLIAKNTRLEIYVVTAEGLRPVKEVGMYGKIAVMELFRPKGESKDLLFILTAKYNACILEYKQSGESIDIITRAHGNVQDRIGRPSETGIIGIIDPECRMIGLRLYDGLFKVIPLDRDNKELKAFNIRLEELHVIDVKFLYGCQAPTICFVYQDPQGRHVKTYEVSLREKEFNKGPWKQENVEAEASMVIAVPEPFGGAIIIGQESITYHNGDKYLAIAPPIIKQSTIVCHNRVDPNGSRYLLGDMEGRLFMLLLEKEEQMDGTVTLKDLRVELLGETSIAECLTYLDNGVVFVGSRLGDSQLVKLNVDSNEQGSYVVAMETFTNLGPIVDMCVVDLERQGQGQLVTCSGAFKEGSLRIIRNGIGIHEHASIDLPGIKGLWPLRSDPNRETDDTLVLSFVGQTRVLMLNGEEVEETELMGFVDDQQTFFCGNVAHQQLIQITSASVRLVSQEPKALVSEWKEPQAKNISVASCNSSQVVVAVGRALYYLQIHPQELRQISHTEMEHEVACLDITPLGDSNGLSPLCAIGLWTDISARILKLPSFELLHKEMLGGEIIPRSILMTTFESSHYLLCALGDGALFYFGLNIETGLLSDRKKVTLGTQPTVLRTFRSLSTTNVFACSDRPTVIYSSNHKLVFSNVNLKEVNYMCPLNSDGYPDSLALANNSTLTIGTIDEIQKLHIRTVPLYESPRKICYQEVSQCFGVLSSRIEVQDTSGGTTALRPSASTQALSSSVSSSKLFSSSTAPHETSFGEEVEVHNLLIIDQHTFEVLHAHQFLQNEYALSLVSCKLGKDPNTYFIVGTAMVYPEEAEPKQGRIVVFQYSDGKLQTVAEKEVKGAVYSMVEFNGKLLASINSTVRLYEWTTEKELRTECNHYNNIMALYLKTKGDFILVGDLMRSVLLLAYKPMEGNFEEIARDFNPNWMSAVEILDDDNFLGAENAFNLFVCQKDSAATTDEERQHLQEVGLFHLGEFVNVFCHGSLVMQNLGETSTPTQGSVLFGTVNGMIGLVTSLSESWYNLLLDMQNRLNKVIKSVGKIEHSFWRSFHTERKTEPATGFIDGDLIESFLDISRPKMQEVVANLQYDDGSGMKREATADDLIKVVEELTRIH

Calu-1 cells = assay: Anti-proliferation (viability) of NSCLC Calu-1 cells, 3 days (Table 7, FIG. 2B); settings: Homo sapiens, 72 h; Calu-1 cells, 3 days, 10-point serial dilution; read-out: GI IC50 in Calu-1
Method in brief: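 Treatment length differs by line: Calu-1 cells receive degrader for 3 days, T47D cells for 6 days, each over a 10-point dilution series. A warhead-modified analogue with unchanged DDB1 binder and linker served as the non-CDK4-binding control.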

CDK4 [2] = target: T1, CDK4; assay: CDK4 percentage degradation in Calu-1 cells (Table 6); parameters: Cells that express cyclin D1-3 and CDK4/6 proteins were treated with heterobifunctional compounds; endogenous in cells; host or cells: Calu-1; settings: 16 hours; for inhibition at 0.04 µM: 40 nM; for inhibition at 0.2 µM: 200 nM
Method in brief: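 Percentage degradation of Cyclin D1 and CDK4 derived from densitometry of ECL Western blots on lysates of Calu-1 cells. Treatment was 16 h with compound at either 40 nM or 200 nM.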
Target sequence in this assay (P11802 2-303 limits assumed): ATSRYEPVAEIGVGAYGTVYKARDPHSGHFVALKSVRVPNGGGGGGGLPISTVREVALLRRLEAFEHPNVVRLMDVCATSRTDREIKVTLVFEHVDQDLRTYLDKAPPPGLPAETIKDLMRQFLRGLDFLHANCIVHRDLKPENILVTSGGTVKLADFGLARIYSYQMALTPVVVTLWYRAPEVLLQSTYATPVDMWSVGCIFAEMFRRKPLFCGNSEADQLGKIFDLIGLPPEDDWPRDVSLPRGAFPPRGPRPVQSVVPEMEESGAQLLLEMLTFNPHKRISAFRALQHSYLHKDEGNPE
Target sequence in this assay (P24385 whole entry partner): as the sequence (P24385 whole entry partner) above
Target sequence in this assay (Q16531 2-1140 limits assumed): as the sequence (Q16531 2-1140 limits assumed) above

Row | SMILES | IC50 (MCF7 cells) [nM] | activity at 0.01 µM (CDK4 [1]) [%] | activity at 0.1 µM (CDK4 [1]) [%] | IC50 (Calu-1 cells) [nM] | inhibition at 0.04 µM (CDK4 [2]) [%] | inhibition at 0.2 µM (CDK4 [2]) [%]
1 | [2H]C([2H])([2H])Nc1ccc(C(=O)Nc2ccc(N(C)C)nn2)c(NC2CCN(CC(=O)N3CCN(Cc4ccc(Nc5ncc6c(C)c(C(C)=O)c(=O)n(C7CCCC7)c6n5)nc4)CC3)CC2)n1 [CPD-491] | < 50 | > 85 | > 85 | ≤ 10 |  | 
2 | CC(=O)c1c(C)c2cnc(Nc3ccc(CN4CCN(CC(=O)NC5CCC(Nc6nc(NC(C)C)ccc6C(=O)Nc6ccc(N(C)C)nn6)C5)CC4)cn3)nc2n(C2CCCC2)c1=O (stereo not shown) [CPD-501, 2-((3-(2-(4-((6-((6-acetyl-8-cyclopentyl-5-methyl-7-oxo-7,8-dihydropyrido[2,3-d]pyrimidin-2-yl)amino)pyridin-3-yl)methyl)piperazin-1-yl)acetamido)cyclopentyl)amino)-N-(6-(dimethylamino)pyridazin-3-yl)-6-(isopropylamino)nicotinamide] | < 50 | > 85 | > 85 | ≤ 10 |  | 
3 | CC(=O)c1c(C)c2cnc(Nc3ccc(C(C)N4CCN(CC(=O)N5CCC6(CCC(Nc7nc(NC(C)C)ccc7C(=O)Nc7ccc(N(C)C)nn7)C6)C5)CC4)cn3)nc2n(C2CCCC2)c1=O (stereo not shown) [CPD-551, 2-((2-(2-(4-(1-(6-((6-acetyl-8-cyclopentyl-5-methyl-7-oxo-7,8-dihydropyrido[2,3-d]pyrimidin-2-yl)amino)pyridin-3-yl)ethyl)piperazin-1-yl)acetyl)-2-azaspiro[4.4]nonan-7-yl)amino)-N-(6-(dimethylamino)pyridazin-3-yl)-6-(isopropylamino)nicotinamide] | < 50 | > 85 | 55 to 85 | ≤ 10 |  | 
4 | CC(=O)c1c(C)c2cnc(Nc3ccc(CN4CCN(CC(=O)N5CCC6(CC(Nc7nc(NC(C)C)ccc7C(=O)Nc7ccc(N(C)C)nn7)C6)C5)CC4)cn3)nc2n(C2CCCC2)c1=O (stereo not shown) [CPD-570, 2-((6-(2-(4-((6-((6-acetyl-8-cyclopentyl-5-methyl-7-oxo-7,8-dihydropyrido[2,3-d]pyrimidin-2-yl)amino)pyridin-3-yl)methyl)piperazin-1-yl)acetyl)-6-azaspiro[3.4]octan-2-yl)amino)-N-(6-(dimethylamino)pyridazin-3-yl)-6-(isopropylamino)nicotinamide] | < 50 | > 85 | 55 to 85 | ≤ 10 |  | 
5 | CNc1ccc(C(=O)Nc2cc(C)n(C)n2)c(NC2CC(CNC(=O)CN3CCN(c4ccc(Nc5ncc6c(C)c(C(C)=O)c(=O)n(C7CCCC7)c6n5)nc4)CC3)C2)n1 (stereo not shown) [CPD-165, 2-((3-((2-(4-(6-((6-acetyl-8-cyclopentyl-5-methyl-7-oxo-7,8-dihydropyrido[2,3-d]pyrimidin-2-yl)amino)pyridin-3-yl)piperazin-1-yl)acetamido)methyl)cyclobutyl)amino)-N-(1,5-dimethyl-1H-pyrazol-3-yl)-6-(methylamino)nicotinamide] | > 100 |  |  | ≤ 10 | 50 to 80 | > 80
6 | CNc1ccc(C(=O)Nc2ccc(N(C)C)nn2)c(NC2CC(C(=O)NCCN3CCN(c4ccc(Nc5ncc6c(C)c(C(C)=O)c(=O)n(C7CCCC7)c6n5)nc4)CC3)C2)n1 (stereo not shown) [CPD-157, 2-((3-((2-(4-(6-((6-acetyl-8-cyclopentyl-5-methyl-7-oxo-7,8-dihydropyrido[2,3-d]pyrimidin-2-yl)amino)pyridin-3-yl)piperazin-1-yl)ethyl)carbamoyl)cyclobutyl)amino)-N-(6-(dimethylamino)pyridazin-3-yl)-6-(methylamino)nicotinamide] | 50 to 100 |  |  | ≤ 10 | 50 to 80 | > 80
7 | CNc1ccc(C(=O)Nc2nc(C)c(C)s2)c(NCCCCCCCNC(=O)CN2CCN(c3ccc(Nc4ncc5c(C)c(C(C)=O)c(=O)n(C6CCCC6)c5n4)nc3)CC2)n1 [CPD-4, 2-((7-(2-(4-(6-((6-acetyl-8-cyclopentyl-5-methyl-7-oxo-7,8-dihydropyrido[2,3-d]pyrimidin-2-yl)amino)pyridin-3-yl)piperazin-1-yl)acetamido)heptyl)amino)-N-(4,5-dimethylthiazol-2-yl)-6-(methylamino)nicotinamide] | 50 to 100 |  |  | 10 to 50 | 50 to 80 | 

Other lines, results leading:

Row | IC50 (MCF7 cells) [nM] | activity at 0.01 µM (CDK4 [1]) [%] | activity at 0.1 µM (CDK4 [1]) [%] | IC50 (Calu-1 cells) [nM] | inhibition at 0.04 µM (CDK4 [2]) [%] | inhibition at 0.2 µM (CDK4 [2]) [%] | SMILES
8 | < 50 | 55 to 85 | 55 to 85 | ≤ 10 |  |  | CC(=O)c1c(C)c2cnc(Nc3ccc(N4CCN(C5CCN(C(=O)C67CC(Nc8nc(NC(C)C)ccc8C(=O)Nc8cc9n(n8)CCC9)(C6)C7)C5)CC4)cn3)nc2n(C2CCCC2)c1=O (stereo not shown) [CPD-592, 2-((3-(3-(4-(6-((6-acetyl-8-cyclopentyl-5-methyl-7-oxo-7,8-dihydropyrido[2,3-d]pyrimidin-2-yl)amino)pyridin-3-yl)piperazin-1-yl)pyrrolidine-1-carbonyl)bicyclo[1.1.1]pentan-1-yl)amino)-N-(5,6-dihydro-4H-pyrrolo[1,2-b]pyrazol-2-yl)-6-(isopropylamino)nicotinamide]
9 | < 50 | > 85 | > 85 | ≤ 10 |  |  | CC(=O)c1c(C)c2cnc(Nc3ccc(N4CCN(C5CCN(C(=O)[C@H]6CC[C@H](Nc7nc(NC(C)C)ccc7C(=O)Nc7cc8n(n7)CCC8)CC6)C5)CC4)cn3)nc2n(C2CCCC2)c1=O (stereo partly drawn) [CPD-520, 2-((trans-4-(3-(4-(6-((6-acetyl-8-cyclopentyl-5-methyl-7-oxo-7,8-dihydropyrido[2,3-d]pyrimidin-2-yl)amino)pyridin-3-yl)piperazin-1-yl)pyrrolidine-1-carbonyl)cyclohexyl)amino)-N-(5,6-dihydro-4H-pyrrolo[1,2-b]pyrazol-2-yl)-6-(isopropylamino)nicotinamide]
10 | < 50 | > 85 | 55 to 85 | ≤ 10 |  |  | CC(=O)c1c(C)c2cnc(Nc3ccc(N4CCN(C5CCN(C(=O)[C@H]6CC[C@H](Nc7nc(NC(C)C)ccc7C(=O)Nc7cc(C)n(C)n7)CC6)C5)CC4)cn3)nc2n(C2CCCC2)c1=O (stereo partly shown) [CPD-478, 2-((4-(3-(4-(6-((6-acetyl-8-cyclopentyl-5-methyl-7-oxo-7,8-dihydropyrido[2,3-d]pyrimidin-2-yl)amino)pyridin-3-yl)piperazin-1-yl)pyrrolidine-1-carbonyl)cyclohexyl)amino)-N-(1,5-dimethyl-1H-pyrazol-3-yl)-6-(isopropylamino)nicotinamide]
11 | 50 to 100 |  |  | ≤ 10 | 50 to 80 | 50 to 80 | CC(=O)c1c(C)c2cnc(Nc3ccc(N4CCN(CC(=O)NC5CC6(C5)CC(Nc5nc(NC(C)C)ccc5C(=O)Nc5cccc(C)n5)C6)CC4)cn3)nc2n(C2CCCC2)c1=O (stereo not shown) [CPD-190, 2-((6-(2-(4-(6-((6-acetyl-8-cyclopentyl-5-methyl-7-oxo-7,8-dihydropyrido[2,3-d]pyrimidin-2-yl)amino)pyridin-3-yl)piperazin-1-yl)acetamido)spiro[3.3]heptan-2-yl)amino)-6-(isopropylamino)-N-(6-methylpyridin-2-yl)nicotinamide]
